We go through two compounds from patent US11723907B2, “Anti-aging compounds” (THE CLEVELAND CLINIC FOUNDATION, priority 2017, dated 2023).

Assay [1] has as its system cytochrome c. Kind of assay: Enzymatic NAD(P)H oxidation / cytochrome c reduction catalyzed by N2N1. It is filed as biochemical. On the procedure: FIGS. 5A-5C provide graphs and schemes relating to the N2N1 mechanism of action. […] No specific substrate was added into reaction mix, therefore, it was concluded that reaction was driven by slow reduction of molecular oxygen dissolved into reaction buffer. The hypothetical reaction equation is shown below reaction plots. (B) The proposed molecular mechanism of possible substrate reduction catalyzed by N2N1. (C) Addition of peroxide or cytochrome c into reaction allowed us to identify cytochrome c as the most preferable substrate for the N2N1 driven enzymatic reaction. […] It was interesting to notice that addition of cytochrome c to non-enzymatic reaction reduced the reaction rate. […] The hypothetical reaction equation is show below the reaction plots.
FIGS. 6A-6B provide graphs showing the enzymatic reduction of cytochrome C catalyzed by N2N1 can utilize both NADH and NADPH. (A) The enzymatic electrons transfer from NADH to cytochrome c driven by N2N1 was monitored by decrease in absorption at 340 nm (NADH) and increase in absorption at 550 nm (cytochrome c). The absorbance spectrum was screened at the end of the reaction (˜1 hour). The hypothetical reaction equation is shown below the reaction plots. (B) The enzymatic electrons transfer from NADPH to cytochrome c driven by N2N1 was monitored by decrease in absorption at 340 nm (NADPH) and increase in absorption at 550 nm (cytochrome c). The hypothetical reaction equation is shown below the reaction plots.
To evaluate possible participation of mitochondrial NADH oxidoreductases, in particular Complex I and III, the […] was run in the presence of rotenone or antimycin A (2 μM). The acquired data allowed us to specify the most probable candidate that carry out the transfer electrons from NAD(P)H to cytochrome C driven by N2N1. The NQO1 protein would be the most likely candidate, while proteins from CYB5 family still cannot be ruled out.
Bonkowski et al., Nature reviews. Molecular cell biology 17, 679-690 (2016); Orr et al., Antioxidants & redox signaling 19, 788-803 (2013). It quite possible, that NAD(P)H oxidation catalyzed by N2N1 is performed by NADH:cytochrome b5 reductases (CYB5 . . . ) or NAD(P)H:quinone oxidoreductase (NQO1) reductase (FIG. 3C). The inventors found by RNA-seq analysis that fourteen genes from CYB5 family were expressed in normal fibroblast. NQO1 was also detected at the high level of expression. These reductases connect aerobic metabolism with aging by directed electron flow from NAD(P)H to oxygen, cytochrome C, and peroxide. Jimenez-Hidalgo et al., Aging cell 8, 140-151 (2009). […]

Assay [2] relates to HSC. In words: Competitive repopulation assay, CD45.1/2 mouse model. It is filed as in vivo. The conditions noted are these: CD45.2 mice, one month in drinking water, ~2.0 mg/kg. The text has this: FIGS. 2A-2G provide graphs and images showing N2N1 and VA support HSC/progenitors populations under pressure of differentiation and tissue culture stress in vitro and in vivo. General schema of CFU (A) and LTC-IC assays (B). […] Representative result of three NBM is shown. (D) The morphology of cells at the end of 1st part of LTC-IC assay is shown. The total number of cells at this step of experiment was always larger in the samples treated with experimental drugs. (E) Treatment of mice with N2N1 promotes maintenance of normal HSC in vivo. Competitive repopulation assay performed on CD45.2 mice treated with N2N1. Summary of four animals, three hematopoietic tissues. […] Representative result of three patients is shown.
The potential positive impact of identified pro-survival catalysts on viability and propagation of HSC was evaluated in competitive repopulation assay based on CD45.1/2 mouse model, a “gold standard” for HSC performance.

Assay [3] can be described thus: Non-enzymatic electron transfer from NAD(P)H to oxidized glutathione. Type of assay: biochemical. The conditions noted are these: potassium phosphate buffer pH 7.0, 37° C. On the procedure: FIGS. 4A 4B provide graphs and schemes showing VA's mechanism of action. […] (A) Different concentrations of VA were incubated with GssG in potassium phosphate buffer at pH 7.0, 37° C. […] The effective concentrations of VA were similar to the detected for the extension of RLS in normal or progeroid cells. (B) The proposed molecular mechanism of glutathione reduction catalyzed by VA. The slightly acidic buffers (pH 7.0) supplemented with potassium (100 mM) were the preferable reaction conditions.
Lead compounds were tested on their possible catalytic amelioration of enzyme kinetics with all above mentioned proteins: recombinant and presented in cellular lysates.

The test system of assay [4] is erythropoietin-dependent UT7 cells. In words: Growth of erythropoietin-dependent UT7 cells. Type of assay: cell-based.

`O=C1/C(=N/O)C=Cc2ccccc21` [N2N1, 1-naphthoquinone-2-monoxime]: the “catalysis of enzymatic NADH and NADPH conversion” value in assay [1] (1 μM) was “actively catalyze”. In addition, in assay [1] (0.5 mM cytochrome c, NADH or NADPH), the “time to complete reduction of cytochrome c” value fell in the range of 10 to 15 min. In addition, in assay [2], the “HSC number / repopulation capacity” value is given as “increased number of HSC or/and increased repopulation capacity”.

In the case of `O=C1NC(=O)C(=NO)C(=O)N1` [VA, 2,4,5,6(1H,3H)-pyrimidine-tetrone 5-oxime], the “rate of NAD(P)H oxidation by GssG” value in assay [3] is “substantially increase the reaction rate”. Moreover, the growth support entry in assay [4] is on record as “does not support the growth”.
